Experimental data taken from US10072304B2, “Nuclear localization of Src-family tyrosine kinases is required for growth factor-induced euchromatinization” (National University Corporation Chiba University, priority 2009, dated 2018).

What was measured:
COS-1 cells [1] = assay: Quantitation of chromatin condensation levels (S.D. value of PI intensity per pixel) in COS-1 cells; type: cell-based, monkey
Protocol: COS-1, HeLa cells (Japanese Collection of Research Bioresources, Osaka), MCF-7 (provided by H. Saya), A431 (provided by M. N. Fukuda), HEK293 (provided by […]), HCT116 (provided by T. Tomonaga), and SYF ([37]; provided by M. Okada and S. Nada) cells were cultured in Iscove's modified DME containing 5% fetal bovine serum (FBS). Cells were transiently transfected with 0.5 μg of plasmid vector using Trans IT Transfection reagent (Mirus) or with 1 μg of plasmid vector using linear polyethylenimine (25 kDa) (Polyscience, Inc.). For growth factor stimulation, COS-1 cells were starved under low serum conditions (0.05% FBS) for 24 h and restimulated with serum (5% FBS). For stimulation of endogenous SFKs, cells were treated with 3 mM Na3VO4 for 3 h, and SFK-mediated tyrosine phosphorylation was verified by treatment with 10 μM PP2 (SFK inhibitor; Calbiochem) or 100 nM wortmannin (PI3K inhibitor; Alomone Labs) for 21 h before Na3VO4 treatment. Na3VO4 was dissolved at 500 mM in 500 mM unbuffered HEPES before use. For preparation of stable transfectant clones, SYF cells transfected with c-Src-wt or Lyn-wt were selected in 333 μg/mL Zeocin (Invitrogen), and COS-1 cells were transfected with the BOSH2BGFP-N1 vector, which encodes GFP-tagged histone H2B ([39,40]; provided by H. Saya), were selected in 3 μg/mL blasticidin. Confocal and Nomarski differential-interference-contrast images were obtained using a Fluoview FV500 confocal laser scanning microscope with a 40×1.00 NA oil and a 100×1.35 NA oil immersion objective (Olympus, Tokyo) and an LSM 510 confocal laser scanning microscope with a 63×1.40 NA oil immersion objective (Zeiss), as described. One planar (xy) section slice (0.6-μm thickness) is shown in all experiments. In brief, cells were fixed with 4% paraformaldehyde for 20 min, and permeabilized in phosphate-buffered saline (PBS) containing 0.1% saponin and 3% bovine serum albumin at room temperature. Cells were subsequently reacted with an appropriate primary antibody for 1 h, washed with PBS containing 0.1% saponin, stained with FITC- or TRITC-conjugated secondary antibody for 1 h. […] To ensure no bleed-through from the fluorescein signal into the red channel, fluorescein and rhodamine were independently excited at 488 nm and 543 nm, respectively. PI was excited at 488 or 543 nm. Emission signals were detected between 505 and 525 nm for fluorescein, at more than 560 nm for rhodamine and more than 610 nm for PI [44]. Composite figures were prepared using Photoshop 5.0 and Illustrator 9.0 software (Adobe). For nuclear staining with anti-pTyr, anti-ATF-2 […]/71, and anti-histone H3K4me3 antibodies, cells were in situ extracted with 0.5% Triton X-100 at 4° C. for 3 min before fixation with 4% paraformaldehyde. For HP1α staining, cells were fixed in 100% methanol at -20° C. for 10 min followed by permeabilization for 30 min in PBS containing 0.1% Triton X-100 at room temperature. Cells were reacted with anti-HP1α antibody for 1 h at room temperature, washed with PBS four times, and stained with secondary antibody for 1 h. Fluorescence intensity plots of anti-histone H3K4me3, anti-ATF-2 […]/71 and anti-HP1α antibody and PI staining (see FIGS. 18B, 19B, and 20B, respectively) were generated using Fluoview version 4.3 software (Olympus, Tokyo). For detection of the kinase activity of nuclear SFKs, purified nuclei suspended in kinase buffer (50 mM HEPES-NaOH, pH7.4, 5 mM MgCl2, 5 mM MnCl2 and 0.1 mM Na3VO4) were preincubated with or without 10 μM PP2 at 30° C. for 30 min, and subsequently incubated with 5 or 10 μM ATP at 30° C. for 30 min, followed by cytocentrifugation at 200×g for 5 min and fixation with 4% paraformaldehyde. DNA was stained with 20 μg/mL PI and 200 μg/mL RNase A for 30 min. Mean fluorescence intensity of tyrosine-phosphorylated proteins in the nucleus was measured using the ImageJ software (National Institutes of Health). Confocal images of PI-stained nuclei were obtained as described above. […]

COS-1 cells [2] = assay: Cell cycle analysis: DNA content by flow cytometry in COS-1 cells; type: cell-based, monkey; conditions: H2O2 at 1, 10 and 20 mM for 1 h, FIGS. 11A-11D
Protocol: To obtain S- and G2-phase cells, COS-1 cells grown in Iscove's modified DME containing 5% FBS were blocked at S phase by exposure to 3 mM thymidine for 18 h. Cells were washed free of thymidine with PBS, and cultured for further 2 or 5 h. Cells were detached by trypsinization, fixed in 1.5% paraformaldehyde at 4° C. for 1 h, and then permeabilized with 70% ethanol at −30° C. for more than 1 h. Fixed cells were washed twice with PBS containing 3% FBS, and treated with 200 μg/ml RNase A and 50 μg/ml PI at 37° C. for 30 min to stain DNA. Cell cycle phase was analyzed by flow cytometry using a MoFlo cell sorter equipped with a 488-nm argon laser (Beckman Coulter). Cells transfected with Lyn-HA or NLS-Lyn-HA were cultured for 36 h, fixed and permeabilized as described above. Fixed cells were washed with PBS containing 3% FBS, stained with anti-HA antibody for 1 h, washed with PBS and stained with FITC-conjugated secondary antibody for 1 h. After DNA staining with PI as described above, cell cycle phase was analyzed in cells expressing Lyn-HA or NLS-Lyn-HA.

N#CC(=C(/N)Sc1ccccc1N)/C(C#N)=C(\N)Sc1ccccc1N [U0126] was tested, and the “basal levels of chromatin condensation” value (COS-1 cells [1]; cells not specified, U0126 concentration not given, data not shown) was “slightly decreased”.
OO [H2O2, hydrogen peroxide] was tested, and the “apoptotic SubG1 cells (histograms of DNA content)” value (COS-1 cells [2]) was “induction of apoptotic SubG1 cells in a dose-dependent manner” and the “level of DNA condensation (S.D. value)” value (COS-1 cells [1]; COS-1, H2O2 at 1, 10 and 20 mM for 1 h, FIG. 12) was “corresponded to the degree of apoptosis”.
